Source: ChEMBL document CHEMBL1275409, “Antimicrobial-resistant pathogens in intensive care units in Canada: results of the Canadian National Intensive Care Unit (CAN-ICU) study, 2005-2006” (2008)

Assays:
Format in all cases: functional
[1] = system: Staphylococcus aureus; experiment: Antimicrobial activity against methicillin-resistant Staphylococcus aureus isolated from ICU patient respiratory tract assessed as resistant isolates by broth microdilution method
[2] = system: Staphylococcus aureus; experiment: Antimicrobial activity against methicillin-resistant Staphylococcus aureus isolated from ICU patient wound assessed as resistant isolates by broth microdilution method
[3] = system: Staphylococcus aureus; experiment: Antimicrobial activity against methicillin-resistant Staphylococcus aureus isolated from ICU patient urine assessed as resistant isolates by broth microdilution method
[4] = system: Staphylococcus aureus; experiment: Antimicrobial activity against methicillin-resistant Staphylococcus aureus isolated from ICU patient blood assessed as resistant isolates by broth microdilution method
[5] = system: Staphylococcus aureus; experiment: Antimicrobial activity against methicillin-resistant Staphylococcus aureus assessed as resistant isolates by broth microdilution method
[6] = system: Staphylococcus aureus; experiment: Antimicrobial activity against methicillin-susceptible Staphylococcus aureus isolated from ICU patient respiratory tract assessed as resistant isolates by broth microdilution method
[7] = system: Staphylococcus aureus; experiment: Antimicrobial activity against methicillin-susceptible Staphylococcus aureus isolated from ICU patient wound assessed as resistant isolates by broth microdilution method
[8] = system: Staphylococcus aureus; experiment: Antimicrobial activity against methicillin-susceptible Staphylococcus aureus isolated from ICU patient urine assessed as resistant isolates by broth microdilution method
[9] = system: Staphylococcus aureus; experiment: Antimicrobial activity against methicillin-susceptible Staphylococcus aureus isolated from ICU patient blood assessed as resistant isolates by broth microdilution method
[10] = system: Staphylococcus aureus; experiment: Antimicrobial activity against methicillin-susceptible Staphylococcus aureus assessed as resistant isolates by broth microdilution method
[11] = system: Enterococcus sp.; experiment: Antimicrobial activity against vancomycin-resistant Enterococcus sp. isolated from ICU patient respiratory tract assessed as resistant isolates by broth microdilution method
[12] = system: Enterococcus sp.; experiment: Antimicrobial activity against vancomycin-resistant Enterococcus sp. isolated from ICU patient wound assessed as resistant isolates by broth microdilution method
[13] = system: Enterococcus sp.; experiment: Antimicrobial activity against vancomycin-resistant Enterococcus sp. isolated from ICU patient urine assessed as resistant isolates by broth microdilution method
[14] = system: Enterococcus sp.; experiment: Antimicrobial activity against vancomycin-resistant Enterococcus sp. assessed as resistant isolates by broth microdilution method
[15] = system: Enterococcus sp.; experiment: Antimicrobial activity against vancomycin-resistant Enterococcus sp. isolated from ICU patient blood assessed as resistant isolates by broth microdilution method
[16] = system: Staphylococcus epidermidis; experiment: Antimicrobial activity against methicillin-resistant Staphylococcus epidermidis isolated from ICU patient wound assessed as resistant isolates by broth microdilution method
[17] = system: Staphylococcus epidermidis; experiment: Antimicrobial activity against methicillin-resistant Staphylococcus epidermidis isolated from ICU patient urine assessed as resistant isolates by broth microdilution method
[18] = system: Staphylococcus epidermidis; experiment: Antimicrobial activity against methicillin-resistant Staphylococcus epidermidis isolated from ICU patient blood assessed as resistant isolates by broth microdilution method
[19] = system: Staphylococcus epidermidis; experiment: Antimicrobial activity against methicillin-resistant Staphylococcus epidermidis assessed as resistant isolates by broth microdilution method
[20] = system: Staphylococcus epidermidis; experiment: Antimicrobial activity against methicillin-susceptible Staphylococcus epidermidis isolated from ICU patient wound assessed as resistant isolates by broth microdilution method
[21] = system: Staphylococcus epidermidis; experiment: Antimicrobial activity against methicillin-susceptible Staphylococcus epidermidis isolated from ICU patient urine assessed as resistant isolates by broth microdilution method
[22] = system: Staphylococcus epidermidis; experiment: Antimicrobial activity against methicillin-susceptible Staphylococcus epidermidis isolated from ICU patient blood assessed as resistant isolates by broth microdilution method
[23] = system: Staphylococcus epidermidis; experiment: Antimicrobial activity against methicillin-susceptible Staphylococcus epidermidis assessed as resistant isolates by broth microdilution method
[24] = system: Pseudomonas aeruginosa; experiment: Antimicrobial activity against carbapenem-resistant Pseudomonas aeruginosa isolated from ICU patient respiratory tract assessed as resistant isolates by broth microdilution method
[25] = system: Pseudomonas aeruginosa; experiment: Antimicrobial activity against carbapenem-resistant Pseudomonas aeruginosa isolated from ICU patient wound assessed as resistant isolates by broth microdilution method
[26] = system: Pseudomonas aeruginosa; experiment: Antimicrobial activity against carbapenem-resistant Pseudomonas aeruginosa isolated from ICU patient urine assessed as resistant isolates by broth microdilution method
[27] = system: Pseudomonas aeruginosa; experiment: Antimicrobial activity against carbapenem-resistant Pseudomonas aeruginosa isolated from ICU patient blood assessed as resistant isolates by broth microdilution method
[28] = system: Pseudomonas aeruginosa; experiment: Antimicrobial activity against carbapenem-resistant Pseudomonas aeruginosa assessed as resistant isolates by broth microdilution method
[29] = system: Escherichia coli; experiment: Antimicrobial activity against CTX-M ESBL producing Escherichia coli isolated from ICU patient respiratory tract assessed as resistant isolates by broth microdilution method
[30] = system: Escherichia coli; experiment: Antimicrobial activity against CTX-M ESBL producing Escherichia coli isolated from ICU patient wound assessed as resistant isolates by broth microdilution method
[31] = system: Escherichia coli; experiment: Antimicrobial activity against CTX-M ESBL producing Escherichia coli isolated from ICU patient urine assessed as resistant isolates by broth microdilution method
[32] = system: Escherichia coli; experiment: Antimicrobial activity against CTX-M ESBL producing Escherichia coli isolated from ICU patient blood assessed as resistant isolates by broth microdilution method
[33] = system: Escherichia coli; experiment: Antimicrobial activity against CTX-M ESBL producing Escherichia coli assessed as resistant isolates by broth microdilution method
[34] = system: Staphylococcus epidermidis; experiment: Antimicrobial activity against methicillin-susceptible Staphylococcus epidermidis isolated from ICU patient respiratory tract assessed as resistant isolates by broth microdilution method
[35] = system: Streptococcus pneumoniae; experiment: Antimicrobial activity against penicillin-resistant Streptococcus pneumoniae isolated from ICU patient respiratory tract assessed as resistant isolates by broth microdilution method
[36] = system: Streptococcus pneumoniae; experiment: Antimicrobial activity against penicillin-resistant Streptococcus pneumoniae isolated from ICU patient wound assessed as resistant isolates by broth microdilution method
[37] = system: Streptococcus pneumoniae; experiment: Antimicrobial activity against penicillin-resistant Streptococcus pneumoniae isolated from ICU patient blood assessed as resistant isolates by broth microdilution method
[38] = system: Streptococcus pneumoniae; experiment: Antimicrobial activity against penicillin-resistant Streptococcus pneumoniae assessed as resistant isolates by broth microdilution method

SMILES	Activity [1] [%]	Activity [2] [%]	Activity [3] [%]	Activity [4] [%]	Activity [5] [%]	Activity [6] [%]	Activity [7] [%]	Activity [8] [%]	Activity [9] [%]	Activity [10] [%]	Activity [16] [%]	Activity [17] [%]	Activity [18] [%]	Activity [19] [%]	Activity [20] [%]	Activity [21] [%]	Activity [22] [%]	Activity [23] [%]	Activity [35] [%]	Activity [36] [%]	further results
CCCCCCCCCC(=O)N[C@@H](Cc1c[nH]c2ccccc12)C(=O)N[C@H](CC(N)=O)C(=O)N[C@@H](CC(=O)O)C(=O)N[C@@H]1C(=O)NCC(=O)N[C@@H](CCCN)C(=O)N[C@@H](CC(=O)O)C(=O)N[C@H](C)C(=O)N[C@@H](CC(=O)O)C(=O)NCC(=O)N[C@H](CO)C(=O)N[C@@H]([C@H](C)CC(=O)O)C(=O)N[C@@H](CC(=O)c2ccccc2N)C(=O)O[C@@H]1C	0	0	0	0	0	0	0	0	0	0	0	0	0	0	0	0	0	0			Activity [11]: 0%; Activity [12]: 0%; Activity [13]: 0%; Activity [14]: 0%; Activity [15]: 0%
Cc1nnc(SCC2=C(C(=O)O)N3C(=O)[C@@H](NC(=O)Cn4cnnn4)[C@H]3SC2)s1 [CEFAZOLIN]	100	100	100	100	100	0	0	0	0	0	100	100	100	100	0	0	0	0			Activity [24]: 4.9%; Activity [25]: 7.7%; Activity [26]: 7.8%; Activity [27]: 7.7%; Activity [28]: 6.2%; Activity [29]: 11.5%; Activity [30]: 8.6%; Activity [31]: 25.8%; Activity [32]: 21.9%; Activity [33]: 20.1%; Activity [34]: 0%
CC[C@H]1OC(=O)[C@H](C)[C@@H](O[C@H]2C[C@@](C)(OC)[C@@H](O)[C@H](C)O2)[C@H](C)[C@@H](O[C@@H]2O[C@H](C)C[C@H](N(C)C)[C@H]2O)[C@](C)(OC)C[C@@H](C)C(=O)[C@H](C)[C@@H](O)[C@]1(C)O [CLARITHROMYCIN]			100			19.5	23.9	30	16.1	20.1	94.1	100	100	96	79.2	100	74.6	77.4	16.4	16.7	Activity [11]: 61.5%; Activity [12]: 60.3%; Activity [13]: 70.1%; Activity [14]: 65.9%; Activity [15]: 68.6%; Activity [37]: 13.2%; Activity [38]: 15.9%
CCC[C@@H]1C[C@@H](C(=O)N[C@@H]([C@H]2O[C@H](SC)[C@H](O)[C@@H](O)[C@H]2O)[C@H](C)Cl)N(C)C1 [CLINDAMYCIN]	72.9	81.5	100	79.6	76.1	4.3	3.5	10	4.6	4.4	88.2	100	100	92	70.8	100	43.6	54.8	6.4	0	Activity [37]: 2.6%; Activity [38]: 5.6%
CC(=O)NC[C@H]1CN(c2ccc(N3CCOCC3)c(F)c2)C(=O)O1 [LINEZOLID]	0	0	0	0	0	0	0	0	0	0	0	0	0	0	0	0	0	0	0	0	Activity [11]: 0%; Activity [12]: 1.6%; Activity [13]: 1.5%; Activity [14]: 1.8%; Activity [15]: 2.9%; Activity [37]: 0%; Activity [38]: 0%
COc1c(N2C[C@@H]3CCCN[C@@H]3C2)c(F)cc2c(=O)c(C(=O)O)cn(C3CC3)c12 [MOXIFLOXACIN]	91.5	88.9	100	89.8	90.1	5.8	7.1	15	6.9	6.4	100	100	83.3	96	50	80	34.6	41.7	1.6	0	Activity [37]: 0%; Activity [38]: 1.3%
CN[C@H](CC(C)C)C(=O)N[C@H]1C(=O)N[C@@H](CC(N)=O)C(=O)N[C@H]2C(=O)N[C@H]3C(=O)N[C@H](C(=O)N[C@H](C(=O)O)c4cc(O)cc(O)c4-c4cc3ccc4O)[C@H](O)c3ccc(c(Cl)c3)Oc3cc2cc(c3O[C@@H]2O[C@H](CO)[C@@H](O)[C@H](O)[C@H]2O[C@H]2C[C@](C)(N)[C@H](O)[C@H](C)O2)Oc2ccc(cc2Cl)[C@H]1O [VANCOMYCIN]	0	0	0	0	0	0	0	0	0	0	0	0	0	0	0	0	0	0	0	0	Activity [11]: 3.3%; Activity [12]: 12.5%; Activity [13]: 4%; Activity [14]: 6.8%; Activity [15]: 5.4%; Activity [37]: 0%; Activity [38]: 0%; Activity [34]: 0%
